Molecular target: T1, LXRβ (Homo sapiens, UniProt P55055)
T1 construct: Co-transfection expression plasmids, comprising full-length LXRα (pCMX-h LXRα or LXRβ (pCMX-hLXRβ)); expressed in transfected cells; host or cells: CV-1 African green monkey kidney cells, transient transfection with pCMX-hLXRβ
T1 sequence (P55055 1-460): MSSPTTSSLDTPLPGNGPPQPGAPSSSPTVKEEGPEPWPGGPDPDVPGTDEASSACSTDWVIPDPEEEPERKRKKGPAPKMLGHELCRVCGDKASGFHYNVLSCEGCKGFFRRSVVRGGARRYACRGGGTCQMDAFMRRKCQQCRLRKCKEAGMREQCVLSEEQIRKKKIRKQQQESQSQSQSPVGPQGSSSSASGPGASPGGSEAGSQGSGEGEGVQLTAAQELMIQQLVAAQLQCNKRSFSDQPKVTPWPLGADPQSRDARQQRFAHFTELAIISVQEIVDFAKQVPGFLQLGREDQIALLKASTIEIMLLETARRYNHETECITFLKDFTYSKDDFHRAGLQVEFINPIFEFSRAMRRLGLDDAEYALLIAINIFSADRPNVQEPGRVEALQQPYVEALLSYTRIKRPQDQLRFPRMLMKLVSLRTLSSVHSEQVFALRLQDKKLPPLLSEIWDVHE
T1 sequence (P19793 1-462 partner): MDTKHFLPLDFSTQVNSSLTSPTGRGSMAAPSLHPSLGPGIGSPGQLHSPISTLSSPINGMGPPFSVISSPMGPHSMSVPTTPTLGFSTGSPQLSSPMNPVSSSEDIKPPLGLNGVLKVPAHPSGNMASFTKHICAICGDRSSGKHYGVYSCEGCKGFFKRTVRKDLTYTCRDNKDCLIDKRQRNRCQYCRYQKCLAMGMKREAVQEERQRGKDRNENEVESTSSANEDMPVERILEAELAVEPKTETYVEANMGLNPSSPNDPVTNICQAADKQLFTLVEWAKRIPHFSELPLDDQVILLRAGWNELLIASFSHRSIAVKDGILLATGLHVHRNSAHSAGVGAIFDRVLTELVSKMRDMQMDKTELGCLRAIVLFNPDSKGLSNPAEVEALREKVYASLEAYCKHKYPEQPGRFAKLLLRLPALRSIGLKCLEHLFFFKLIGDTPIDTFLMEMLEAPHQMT
Assay: LXR/LXRE co-transfection assay (luciferase reporter) in CV-1 cells, LXRβ
Assay type: cell-based
Conditions: for EC50: CV-1 cells transfected with pCMX-hLXRβ and LXREx1-Tk-Luciferase, 20 hours incubation, read-out: LXRbeta agonism EC50; for Emax / LXRbeta % EFFICACY: CV-1 cells, relative to maximum response of high control N-(3-((4-fluorophenyl)-(naphthalene-2-sulfonyl)amino)propyl)-2,2-dimethylpropionamide; for Emax: read-out: LXRbeta % EFFICACY
From the text: To measure the ability of compounds to activate or inhibit the transcriptional activity of LXR in a cell based assay, the co-transfection assay was used. It has been shown that LXR functions as a heterodimer with RXR. For the co-transfection assay, expression plasmids for LXRα and LXRβ are introduced separately via transient transfection into mammalian cells along with a luciferase reporter plasmid that contains one copy of a DNA sequence that is bound by LXR-RXR heterodimers (LXRE; Willy, P. et. al. 1995). LXRs heterodimerize with the endogenous RXR. Treatment of transfected cells with an LXR agonist increases the transcriptional activity of LXR, which is measured by an increase in luciferase activity.
Co-transfection expression plasmids, comprising full-length LXRα (pCMX-h LXRα or LXRβ (pCMX-hLXRβ), reporter plasmid (LXREx1-Tk-Luciferase), and control (pCMX-Galactosidase expression vector) (Willey et al. Genes & Development 9 1033-1045 (1995)).
CV-1 cells were prepared 24 hours prior to the experiment by plating them into T-175 flasks or 500 cm^2 dishes in order to achieve 70-80% confluency on the day of the transfection. The number of cells to be transfected was determined by the number of plates to be screened. Each well of a 384 well plate requires 1.5×10^4 cells. DNA Transfection Reagent was prepared by mixing the required plasmid DNAs with a cationic lipid transfection reagent Transit 2020 (Mirus Bio) for CV1 by following the instructions provided with the reagents. Optimal DNA amounts were determined empirically per cell line and size of vessel to be transfected. For each T175 cm^2 flask a total of 44.4 ug for CV1 of DNA, 133 ul Transit2020 and 4.5 ml DMEM for CV1 was mixed and added. Cells were then incubated at least 5 hours at 37° C. to prepare screening cells.
Assay plates were prepared by dispensing 5 μL of compound per well of a 384 well plate to achieve final compound concentration of 10 μM and no more than 0.5% DMSO. Media was removed from the screening cells, the cells trypsinized, harvested cells by centrifugation, counted, and plated at a density of approximately 1.5×10^4 cells in the 384 well assay plate prepared above in a volume of about 95 uL. Assay plates containing both compounds and screening cells (100 μL in total volume) were incubated for 20 hours at 37° C.
After incubation with compounds, media was removed from the cells and luciferase assay reagent (30 μL/well) added. After ˜2 minutes at ambient temperature, the assay plates were read on a luminometer (PE Biosystems Northstar reader with on-board injectors, or Envision (Perkin Elmer) or equivalent).
The LXR/LXRE co-transfection assay can be used to establish the EC50/IC50 values for potency and percent activity or inhibition for efficacy. Efficacy defines the activity of a compound relative to a high control ((N-(3-((4-fluorophenyl)-(naphthalene-2-sulfonyl)amino)propyl)-2,2-dimethylpropionamide)) or a low control (DMSO/vehicle). The dose response curves are generated from a 10 point curve with concentrations differing by ½ LOG units. Each point represents the average of 4 wells of data from a 384 well plate.
The data from this assay is fitted to the following equation, from which the EC50 value may be solved: Y=Bottom+(Top−Bottom)/(1+10^((log EC50-X)*HillSlope)).
The EC50/IC50 is therefore defined as the concentration at which an agonist or antagonist elicits a response that is halfway between the Top (maximum) and Bottom (baseline) values. The EC50/IC50 values represented are the averages of at least 2 and normally 3 independent experiments. The determination of the relative efficacy or % control for an agonist is by comparison to the maximum response achieved by ((N-(3-((4-fluorophenyl)-(naphthalene-2-sulfonyl)-amino)propyl)-2,2-dimethylpropionamide) that is measured individually in each dose response experiment.
Table 1 lists LXRβ EC50 values and % efficacy measurements in the cotransfection assay for examples of this invention.

| Structure (SMILES) | EC50 [µM] | Emax [%] | LXRbeta % EFFICACY [%] |
| --- | --- | --- | --- |
| Cc1nc(-c2ccc(Cl)cc2)c(-c2cc(-c3cc(F)c(CO)c(S(C)(=O)=O)c3)ccc2-n2ccc(C(F)(F)F)n2)o1 [Example 336, (3′-(4-(4-chlorophenyl)-2-methyloxazol-5-yl)-3-fluoro-5-(methylsulfonyl)-4′-(3-(trifluoromethyl)-1H-pyrazol-1-yl)biphenyl-4-yl)methanol] | 0.033 | 75 |  |
| Cc1nc(-c2cc(-c3cccc(C4(C(N)=O)CC4)c3)ccc2-n2nc(C(F)(F)F)cc2Cl)c(-c2ccc(OC(F)(F)F)cc2)o1 [Example 418, 1-(4′-(5-chloro-3-(trifluoromethyl)-1H-pyrazol-1-yl)-3′-(2-methyl-5-(4-(trifluoromethoxy)phenyl)oxazol-4-yl)-[1,1′-biphenyl]-3-yl) cyclopropanecarboxamide] | 0.728 | 74 |  |
| Cc1nc(-c2ccc3c(c2)OC(F)(F)O3)c(-c2cc(-c3cccc(S(C)(=O)=O)c3)ccc2-c2cc(C(C)O)nn2C)o1 (centres unmarked) [Example 102] | 0.227 |  | 96 |
| Cc1nc(-c2ccc3c(c2)OC(F)(F)O3)c(-c2cc(-c3cc(F)c(CO)c(S(C)(=O)=O)c3)ccc2-c2cc(C(C)(C)C#N)nn2C)o1 [Example 67, 2-(5-(3-(4-(2,2-difluorobenzo[d][1,3]dioxol-5-yl)-2-methyloxazol-5-yl)-3′-fluoro-4′-(hydroxymethyl)-5′-(methylsulfonyl)biphenyl-4-yl)-1-methyl-1H-pyrazol-3-yl)-2-methylpropanenitrile] | 0.024 |  | 79 |
| Cc1nc(-c2ccc(OC(F)(F)F)cc2)c(-c2cc(-c3cccc(C4(C(N)=O)CC4)c3)ccc2-n2nc(C(F)(F)F)cc2Cl)o1 [Example 381, 1-(4′-(5-chloro-3-(trifluoromethyl)-1H-pyrazol-1-yl)-3′-(2-methyl-4-(4-(trifluoromethoxy)phenyl)oxazol-5-yl)-[1,1′-biphenyl]-3-yl) cyclopropanecarboxamide] | 1.08 | 61 |  |
| Cc1nc(-c2ccc3c(c2)OC(F)(F)O3)c(-c2cc(-c3cc(F)c(CO)c(S(C)(=O)=O)c3)ccc2-c2cc(C(F)(F)C(=O)N3CCOCC3)nn2C)o1 [Example 81, 2-(5-(3-(4-(2,2-difluorobenzo[d][1,3]dioxol-5-yl)-2-methyloxazol-5-yl)-3′-fluoro-4′-(hydroxymethyl)-5′-(methylsulfonyl)biphenyl-4-yl)-1-methyl-1H-pyrazol-3-yl)-2,2-difluoro-1-morpholinoethanone] | 0.184 | 43 |  |

Continued by falling EC50, values first:

| EC50 [µM] | Emax [%] | LXRbeta % EFFICACY [%] | Structure (SMILES) |
| --- | --- | --- | --- |
| 2.52 | 30 |  | Cc1nc(-c2ccc3c(c2)OC(F)(F)O3)c(-c2cc(-c3cc(F)c(CO)c(S(C)(=O)=O)c3)ccc2-c2cc(C(F)(F)c3nnc[nH]3)nn2C)o1 [Example 52, (4′-(3-(difluoro(4H-1,2,4-triazol-3-yl)methyl)-1-methyl-1H-pyrazol-5-yl)-3′-(4-(2,2-difluorobenzo[d][1,3]dioxol-5-yl)-2-methyloxazol-5-yl)-3-fluoro-5-(methylsulfonyl)biphenyl-4-yl)methanol] |
| 0.592 | 40 |  | Cc1nc(-c2ccc3c(c2)OC(F)(F)O3)c(-c2cc(-c3cc(F)c(CO)c(S(C)(=O)=O)c3)ccc2-c2cc(CC(N)=O)nn2C)o1 [Example 61, 2-(5-(3-(4-(2,2-difluorobenzo[d][1,3]dioxol-5-yl)-2-methyloxazol-5-yl)-3′-fluoro-4′-(hydroxymethyl)-5′-(methylsulfonyl)-[1,1′-biphenyl]-4-yl)-1-methyl-1H-pyrazol-3-yl)acetamide] |
| 0.227 | 93 |  | Cc1cc(C(F)(F)F)nn1-c1ccc(-c2cc(Cl)c(CO)c(S(C)(=O)=O)c2)cc1-n1nncc1-c1ccc(OC(F)(F)F)cc1 [Example 302, [3-chloro-5-(methylsulfonyl)-4′-[5-methyl-3-(trifluoromethyl)-1H-pyrazol-1-yl]-3′-(5-{4-[(trifluoromethyl)oxy]phenyl}-1H-1,2,3-triazol-1-yl)biphenyl-4-yl]methanol] |
| 0.194 | 68 |  | Cc1nc(-c2cc(-c3cccc(S(C)(=O)=O)c3)ccc2-n2ccc(C(F)(F)F)n2)c(-c2ccc(OC(F)F)c(Cl)c2)o1 [Example 397, 5-(3-chloro-4-(difluoromethoxy)phenyl)-2-methyl-4-(3′-(methylsulfonyl)-4-(3-(trifluoromethyl)-1H-pyrazol-1-yl)biphenyl-3-yl)oxazole] |
| 0.131 | 58 |  | Cc1nc(-c2ccc3c(c2)OC(F)(F)O3)c(-c2cc(-c3cc(F)c(CO)c(S(C)(=O)=O)c3)ccc2-c2cc(C(F)(F)C(=O)N(C)C)nn2C)o1 [Example 80, 2-(5-(3-(4-(2,2-difluorobenzo[d][1,3]dioxol-5-yl)-2-methyloxazol-5-yl)-3′-fluoro-4′-(hydroxymethyl)-5′-(methylsulfonyl)biphenyl-4-yl)-1-methyl-1H-pyrazol-3-yl)-2,2-difluoro-N,N-dimethylacetamide] |
| 0.073 | 60 |  | Cc1nc(-c2ccc(OC(F)F)c(F)c2)c(-c2cc(-c3cccc(S(C)(=O)=O)c3)ccc2-c2cc(C(F)(F)C(N)=O)nn2C)o1 [Example 72, 2-(5-(3-(4-(4-(difluoromethoxy)-3-fluorophenyl)-2-methyloxazol-5-yl)-3′-(methylsulfonyl)biphenyl-4-yl)-1-methyl-1H-pyrazol-3-yl)-2,2-difluoroacetamide] |
| 0.054 |  | 56 | Cc1nc(-c2ccc3c(c2)OC(F)(F)O3)c(-c2cc(-c3cc(F)c(CO)c(S(C)(=O)=O)c3)ccc2-c2cc(C(C)O)nn2C)o1 (centres unmarked) [Example 104, 1-(5-(3-(4-(2,2-difluorobenzo[d][1,3]dioxol-5-yl)-2-methyloxazol-5-yl)-3′-fluoro-4′-(hydroxymethyl)-5′-(methylsulfonyl)-[1,1′-biphenyl]-4-yl)-1-methyl-1H-pyrazol-3-yl)ethanol] |

Reference: patent US9751869B2, “LXR modulators” (BRISTOL-MYERS SQUIBB COMPANY, priority 2013, dated 2017)
